Measurements from EP0209462A1, “Liquid stable anthelmintic and fungicidal composition based on bithionol sulfoxide” (SOCIETE NATIONALE ELF AQUITAINE, priority 1985, dated 1987).
Like-named read-outs stand apart in the source and are kept apart here.

Experiments:
[1] = Maximum tolerated dose and therapeutic index; conditions: in vivo, read-out: indice thérapeutique
Text: La présente invention apporte un progrès marqué dans les traitements des atteintes justiciables du bithionol sulfoxyde et des mélanges de ce composé avec d'autres anthelminthiques. Elle permet l'application des composés actifs sous la forme d'un liquide homogène, ne donnant pas lieu à la sédimentation, susceptible par conséquent d'être dosé avec précision et appliqué par des personnes non spécialisées.Un autre avantage considérable de la composition suivant l'invention est la possibilité de l'administration de celle-ci par injection, forme qui était complètement exclue jusqu'à présent. Un autre avantage également très important de la composition selon l'invention est qu'elle permet l'utilisation du bithionol sulfoxyde et des autres anthelminthiques, composant le mélange, à des doses moindres que celles qui étaient jusqu'alors utilisées. Pour n'en donner qu'un exemple pour le bithionol sulfoxyde, cette dose peut passer de 40 mg/kg de poids vif traité à 30 mg/kg pour une même efficacité. Lorsque l'on sait que la dose maximale tolérée est de 150 mg/kg, cela fait passer l'indice thérapeutique de moins de 4 à 5.

[2] = Stability test at different pH and temperatures (assay of both actives); type: physicochemical
Text: Des échantillons de la composition de l'exemple 9, qui contient 8% de bithionol sulfoxyde et 1,9% de chlorhydrate de levamisole, sont amenés à différents pH et conservés aux différentes températures, comme indiqué au tableau 4 ci-après.
Les pH inférieurs à 7 sont ajustés avec du tampon mandéli- que (1 M), tandis que les phosphates habituels ont servi (0,025 M) à fixer le pH supérieur à 7.
Dans chaque cas, le dosage des deux corps actifs est effectué aux différentes périodes choisies et les teneurs en ces corps sont notées au tableau 4.

[3] = cited from earlier work
[4] = in vivo; cited from earlier work

| conservation ([2]; pH 6 à 8) | Compound | selectivity ratio ([1]; dose 30 mg/kg (composition selon l'invention)) | selectivity ratio ([1]; dose 40 mg/kg de poids vif (earlier forms)) | conservation ([2]; pH 2 à 4) | conservation ([2]; pH de 6 à 8) | insolubilité dans l'eau ([3]; à 25°C) [ppm] | dose maximale tolérée [4] [mg/kg] | solubilité dans l'eau ([3]; water) [%] |
| --- | --- | --- | --- | --- | --- | --- | --- | --- |
| – | [O-][S+](c1cc(Cl)cc(Cl)c1O)c1cc(Cl)cc(Cl)c1O [bithionol sulfoxyde, bis(hydroxy-2 dichloro-3,5 phényl) sulfoxyde] | 5 | < 4 | tout à fait satisfaisante | se conserve bien | 4 | 150 | – |
| tient mal | c1ccc([C@H]2CN3CCSC3=N2)cc1 [chlorhydrate de L(-) levamisole, tétrahydro-2,3,5,6 phényl-6 imidazo(2,1-b)thiazole] | – | – | – | – | – | – | ~20 |
